One data set relates to hyperlipidemia mice. Briefly: Lipid lowering effects in Tyloxapol-induced hyperlipidemia mice. Type of data set: in vivo, Kunming strain. The note with it: plasma; 10 mg/kg oral once a day for four days; Tyloxapol 400 mg/kg i.p.; blood 24 hours after Tyloxapol. As to the method:
Test method: Male and […] mice, Kunming strain, 35 each, weight 18-22 grams, were used. Food and water were available ad libitum. The animals were randomized into 7 groups (n=10). Groups of animals were administered orally, via a stomach tube, vehicle (distilled water, two groups), R-bambuterol hydrochloride (10 mg/kg and 5 mg/kg), racemic bambuterol hydrochloride (10 mg/kg and 5 mg/kg) and simvastatin (10 mg/kg) once a day for four days. With the exception of one vehicle- treated group (as control), Tyloxapol (400 mg/kg, Sigma Chemical Co.) was injected into the peritoneal cavity of the mice of all groups immediately after the last treatment on the fourth day in order to induce hyperlipidemia. All the animals were fasted overnight prior to the injection of Tyloxapol. Blood samples were collected by cardiac puncture 24 hours after the injection of Tyloxapol. The blood samples were processed to plasma, and concentration of triglycerides (TG), cholesterol (CHO), high density lipoprotein (HDL), low density lipoprotein (LDL) and very low density lipoprotein (VLDL) were measured with an auto-blood analyzer (Olympic, Japan).

Another data set deals with Rats (Sprague Dawley). Briefly: Cardiovascular effects in anesthetized rats (HR, MBP, Max dp/dt). Type of data set: in vivo. The note with it: 30 mg/kg intravenously. The text has this:
Test method: Rats (Sprague Dawley, 250-300g) were randomized into two groups (n=6, equal sexes). After anesthesia, plastic tubing was introduced into a carotid artery of each animal and connected to pressure transducers to record mean artery pressure (MBP) and heart rate (HR). Another tube was introduced into the left ventricular chamber via the another carotid artery and connected to a pressure transducer. Left ventricular systolic pressure (LVSP) and the first order of differential of LVSP (dp/dt) as an index for inotropic effects were recorded. R-Bambuterol and racemic bambuterol hydrochloride were dissolved in saline and administrated intravenously at 30 mg/kg to each animal. The HR, MBP and Max dp/dt were measured before treatment (control) and after the treatments when the maximum response occurred, and 20 min after treatment as indication of recovery.

The conditions of data set [1]: bronchospasmolytic activity upon oral administration; cited from earlier work.
[2] abbreviates: 20 min after treatment (recovery).
[3] abbreviates: change from pre-treatment control at maximum response.

`CN(C)C(=O)Oc1cc(OC(=O)N(C)C)cc(C(O)CNC(C)(C)C)c1` (racemic) [bambuterol]: in the data set on hyperlipidemia mice, the CHO lipid levels turned out to be 125.2 ± 19.8 mg/dL, the HDL lipid levels was 50 ± 17 mg/dL, the LDL lipid levels worked out at 30 ± 6 mg/dL and the TG lipid levels is 148 ± 45 mg/dL. The VLDL lipid levels in the data set with hyperlipidemia mice is 44.2 ± 14.4 mg/dL. In addition, in the data set on Rats (Sprague Dawley) (setting [2]), the “HR, 20min after Δ” value came out at 40±9 Beat/min; the “MBP, 20min after Δ” value came to 1.1±0.4 Kpa; the “MBP, 20min after Δ, % of control” value is reported as 8.3%; the “Maxdp/dt, 20min after Δ” value turned out to be 13±3.8 Kpa/sec. For the same compound, in the data set on Rats (Sprague Dawley) (setting [2]), the “Maxdp/dt, 20min after Δ, % of control” value is given as 4.8%. In the data set on Rats (Sprague Dawley) (20 min after treatment (recovery), listed as Rac-Bambuterol), the “HR, 20min after Δ, % of Control” value is 9.5%. In the data set on Rats (Sprague Dawley) (20 min after treatment (recovery), listed as racemic bambuterol hydrochloride), the “HR, 20min after Δ, % of Control” value was 9.5%. In addition, in the data set with Rats (Sprague Dawley) (at maximum response), the “HR, Treatment Δ, % of Control” value was found to be 20.6% and the “MBP, Treatment Δ, % of control” value is recorded as 31.6%. The “Maxdp/dt, Treatment Δ, % of control” value in the data set on Rats (Sprague Dawley) (at maximum response, listed as Rac-Bambuterol) was found to be 24.4%. The “Maxdp/dt, Treatment Δ, % of control” value with Rats (Sprague Dawley) (at maximum response, listed as racemic bambuterol) was found to be 24.4%. Further, in the data set with Rats (Sprague Dawley) (setting [3]), the “HR, Treatment Δ” value came out at 85.8±5 Beat/min; the “MBP, Treatment Δ” value was determined as 4.2±0.5 Kpa; the “Maxdp/dt, Treatment Δ” value came out at 65.4±9 Kpa/sec. For the same compound, the duration of activity entry in data set [1] is on record as “more than 12 hours”.

Values taken from patent EP1542672B1, “R-BAMBUTEROL, ITS PREPARATION AND THERAPEUTIC USES” (priority 2002, dated 2004).
